Like-named read-outs stand apart in the source and are kept apart here.
Experiments:
[1] = Microsomal stability assay, rat liver microsomes;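 also: rat liver microsomes (0.25 mg/mL) with about 1 µM compound plus 1 mM NADPH, pH 7.4, 37 °C for 30 min, parent left measured by LC-MS/MS against 0 min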
[2] = Microsomal stability assay, human liver microsomes;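 also: pooled human liver microsomes at 0.25 mg/mL with 1 µM compound and NADPH at 37 °C, pH 7.4, for 30 min, unchanged parent quantified by LC-MS/MS against the 0 min sample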
CYP2D6 = CYP2D6 (Homo sapiens, UniProt P10635); experiment: CYP2D6 inhibition assay (bufuralol, pooled human liver microsomes)
CYP3A4 (CYP3A) = CYP3A4 (CYP3A) (Homo sapiens, UniProt P08684); experiment: in vitro; conditions: microsomes, pH 7.4;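 also: inhibition of CYP3A-mediated 1-hydroxymidazolam formation after 10 min incubation with NADPH, quantified by HPLC MS relative to metabolite produced without test compound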
[3] = tested on: Aβ40 in conditioned medium of cells stably expressing Amyloid Precursor Protein (APP); experiment: In vitro BACE cell-based assay (Aβ40 in conditioned medium, sandwich ELISA); conditions: Homo sapiens;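 also: compounds added as a dilution series, secreted peptide quantified by europium time-resolved fluorescence readout, potency fitted from percent of control versus compound concentration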
[4] = target: Beta Secretase enzyme (BACE) (Homo sapiens, UniProt P56817); experiment: In vitro enzymatic BACE FRET (fluorescence resonance energy transfer) assay; format: biochemical;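 also: fluorescence read after 1 h with 50 nM quenched peptide substrate spanning the BACE cleavage site, in pH 4.2 acetate buffer containing 10% DMSO and nonionic detergent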
[5] = 2D6 IC50 (uM), CYP enzyme inhibition
[6] = HEK293, HEK cells, read-out: HEK cell assay
[7] = BACE enzyme assay, read-out: BACE1 FRET assay
[8] = HEK293, HEK cell-based assay, IC50's in uM, read-out: HEK cell assay
[9] = BACE enzyme assay, IC50's in uM, read-out: BACE1 FRET assay
[10] = 2D6 IC50, CYP enzyme inhibition
[11] = HEK293, cell-based assay, HEK cells, IC50's in uM, read-out: HEK cell assay
[12] = 2D6 IC50 (uM), CYP2D6 inhibition
[13] = HEK293, HEK cell-based assay IC50, read-out: HEK cell assay
[14] = BACE enzyme assay IC50, read-out: BACE1 FRET assay
[15] = HEK293, HEK cells, read-out: HEK cell assay (IC50)
[16] = read-out: BACE1 FRET assay (IC50)
[17] = HEK293, Table 2, HEK cells, read-out: HEK cell assay
[18] = Table 2, read-out: BACE1 FRET assay

Sequence of CYP3A4 (CYP3A) (P08684 2-503): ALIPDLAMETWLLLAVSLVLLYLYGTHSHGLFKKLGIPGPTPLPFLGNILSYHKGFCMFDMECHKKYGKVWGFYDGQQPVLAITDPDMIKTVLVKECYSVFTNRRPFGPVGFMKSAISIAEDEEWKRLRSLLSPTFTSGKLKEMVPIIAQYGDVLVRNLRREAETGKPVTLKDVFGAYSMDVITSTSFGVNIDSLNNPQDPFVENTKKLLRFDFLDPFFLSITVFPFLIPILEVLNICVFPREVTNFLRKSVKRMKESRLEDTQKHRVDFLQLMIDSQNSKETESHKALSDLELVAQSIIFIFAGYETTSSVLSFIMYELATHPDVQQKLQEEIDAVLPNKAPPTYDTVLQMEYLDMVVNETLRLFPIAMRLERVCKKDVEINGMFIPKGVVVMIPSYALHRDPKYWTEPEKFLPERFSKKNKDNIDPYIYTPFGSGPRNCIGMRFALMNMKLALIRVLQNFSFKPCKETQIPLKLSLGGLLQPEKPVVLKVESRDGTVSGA
Sequence of Beta Secretase enzyme (BACE) (P56817 46-501): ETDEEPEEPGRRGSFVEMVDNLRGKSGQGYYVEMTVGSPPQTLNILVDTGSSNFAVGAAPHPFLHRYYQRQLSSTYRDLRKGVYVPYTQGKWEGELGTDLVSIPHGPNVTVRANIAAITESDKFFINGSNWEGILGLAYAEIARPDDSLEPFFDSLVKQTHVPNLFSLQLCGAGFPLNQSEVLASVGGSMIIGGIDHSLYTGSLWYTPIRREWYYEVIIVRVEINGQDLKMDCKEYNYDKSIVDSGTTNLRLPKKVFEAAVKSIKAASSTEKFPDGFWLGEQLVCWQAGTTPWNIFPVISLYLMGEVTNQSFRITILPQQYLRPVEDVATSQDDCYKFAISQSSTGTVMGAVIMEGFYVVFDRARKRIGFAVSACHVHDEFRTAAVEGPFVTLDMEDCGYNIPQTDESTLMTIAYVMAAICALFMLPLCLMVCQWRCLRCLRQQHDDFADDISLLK
Sequence of CYP2D6 (P10635 whole entry): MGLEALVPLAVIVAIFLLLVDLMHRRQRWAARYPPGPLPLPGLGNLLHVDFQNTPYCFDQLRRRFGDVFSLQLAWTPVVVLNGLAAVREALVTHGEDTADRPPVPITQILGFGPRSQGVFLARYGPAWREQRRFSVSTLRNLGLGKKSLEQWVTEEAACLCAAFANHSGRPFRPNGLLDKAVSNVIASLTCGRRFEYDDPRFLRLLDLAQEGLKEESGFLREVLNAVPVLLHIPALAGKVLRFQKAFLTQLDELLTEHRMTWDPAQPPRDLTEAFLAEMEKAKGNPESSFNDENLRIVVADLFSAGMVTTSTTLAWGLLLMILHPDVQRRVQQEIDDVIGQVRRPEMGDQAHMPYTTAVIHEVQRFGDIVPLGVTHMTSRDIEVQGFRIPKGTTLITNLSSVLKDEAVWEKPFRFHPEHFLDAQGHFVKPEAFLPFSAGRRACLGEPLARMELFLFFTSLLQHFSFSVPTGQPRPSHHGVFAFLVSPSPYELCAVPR

Structure (SMILES) | RLM ([1]; rat liver microsomal data) | HLM ([2]; human liver microsomal data) | IC50 (CYP2D6; [5]) | IC50 (CYP3A4 (CYP3A)) | IC50 [3, 6] | IC50 [4, 7] | RLM ([1]; rat liver microsomes) | HLM ([2]; human liver microsomes) | further results
CO[C@H](C)C(=O)N[C@@H](Cc1cc(F)cc(F)c1)[C@H](O)CN[C@H]1CC2(CCC2)Oc2c(-c3ccncc3)cc(Cl)cc21 [compound 561] | 426 µL/min/mg | 113 µL/min/mg | 0.4 µM | 0.1 µM | 0.262 µM | 0.092 µM | – | – | –
COCC(=O)N[C@@H](Cc1cc(F)cc(Cl)c1)[C@H](O)CN[C@H]1CC2(CCC2)Oc2ncc(CC(C)(F)F)cc21 [compound 799] | 236.5 µL/min/mg | 663 µL/min/mg | 4.95 µM | 0.5 µM | – | – | – | – | IC50 [3, 8]: 0.019 µM; IC50 [4, 9]: 0.008 µM
CO[C@H](C)C(=O)N[C@@H](Cc1cccc(-c2nccs2)c1F)[C@H](O)CN[C@H]1CC2(CCC2)Oc2ncc(CC(C)(C)C)cc21 [compound 909] | 127 µL/min/mg | 76 µL/min/mg | – | 0.1 µM | – | – | – | – | IC50 (CYP2D6; [10]): 0.9 µM; IC50 [3, 11]: 0.052 µM; IC50 [4, 9]: 0.157 µM
CO[C@H](C)C(=O)N[C@@H](Cc1ccc(F)c(-c2nccs2)c1)[C@H](O)CN[C@H]1CC2(CCC2)Oc2ncc(CC(C)C)cc21 [compound 768, (2R)-N-((1S,2R)-1-(4-fluoro-3-(1,3-thiazol-2-yl)benzyl)-2-hydroxy-3-(((4′S)-6′-(2-methylpropyl)-3′,4′-dihydrospiro[cyclobutane-1,2′-pyrano[2,3-b]pyridin]-4′-yl)amino)propyl)-2-methoxypropanamide] | 70 µL/min/mg | 39 µL/min/mg | 0.4 µM | 0.1 µM | – | – | – | – | IC50 [3, 8]: 0.105 µM; IC50 [4, 9]: 0.022 µM
COCC(=O)N[C@@H](Cc1cc(F)cc(F)c1)[C@H](O)CN[C@@H]1CC2(CCC2)Oc2c1cc(CC(C)(C)C)nc2-c1cnc[nH]1 [compound 509] | 70 µL/min/mg | 74 µL/min/mg | 2.3 µM | 0.1 µM | 0.077 µM | 0.487 µM | – | – | –
C#Cc1cc(F)cc(C[C@H](NC(C)=O)[C@H](O)CN[C@H]2CC3(CCC3)Oc3ncc(CC(C)(C)C)cc32)c1 [compound 713, N-((1S,2R)-3-(((4′S)-6′-(2,2-dimethylpropyl)-3′,4′-dihydrospiro[cyclobutane-1,2′-pyrano[2,3-b]pyridin]-4′-yl)amino)-1-(3-ethynyl-5-fluorobenzyl)-2-hydroxypropyl)acetamide] | – | – | – | 0.1 µM | – | – | 58 µL/min/mg | 75 µL/min/mg | IC50 (CYP2D6; [12]): 1.2 µM; IC50 [3, 13]: 0.015 µM; IC50 [4, 14]: 0.003 µM
COCC(=O)N[C@@H](Cc1cccc(F)c1)[C@H](O)CN[C@H]1CC2(CCC2)Oc2c1cc([C@H](n1ccnc1)C(C)(C)C)cc2-n1ccnc1 [compound 563] | 40 µL/min/mg | 40 µL/min/mg | 0.4 µM | 0.1 µM | > 10 µM | 12 µM | – | – | –
CO[C@H](C)C(=O)N[C@@H](Cc1cccc(F)c1)[C@H](O)CN[C@H]1CC2(CCC2)Oc2c(-c3ccncc3)cc(CC(C)C)cc21 [compound 609] | – | – | – | 0.1 µM | – | – | 137 µL/min/mg | 64 µL/min/mg | IC50 (CYP2D6; 2D6 IC50, CYP2D6 inhibition): 2 µM; IC50 [3, 15]: 0.005 µM; IC50 [4, 16]: 0.008 µM
CC(C)Cc1cnc2c(c1)[C@@H](NC[C@@H](O)[C@H](Cc1ccc3c(c1)OCO3)NC(=O)[C@H](C)F)CC1(CCC1)O2 [compound 552] | 253 µL/min/mg | 73 µL/min/mg | 2.3 µM | 0.2 µM | 0.369 µM | 0.049 µM | – | – | –
COCC(=O)N[C@@H](Cc1cc(F)cc(F)c1)[C@H](O)CN[C@H]1CC2(CCC2)Oc2c1cc(CC(C)C)cc2-n1ccnc1 [compound 458] | 188.5 µL/min/mg | 25.5 µL/min/mg | – | 0.1 µM | – | – | – | – | IC50 (CYP2D6; [10]): 0.9 µM; IC50 [3, 17]: 0.012 µM; IC50 [4, 18]: 0.017 µM
CCOCC(=O)N[C@@H](Cc1cccc(-c2ncco2)c1)[C@H](O)CN[C@H]1CC2(CCC2)Oc2ncc(CC(C)(C)C)cc21 [compound 901] | 62 µL/min/mg | 74 µL/min/mg | – | ≥ 27 µM | – | – | – | – | IC50 (CYP2D6; [10]): 24.8 µM; IC50 [3, 11]: 0.032 µM; IC50 [4, 9]: 0.01 µM
CC(=O)N[C@@H](Cc1cc(F)cc(F)c1)[C@H](O)CN[C@H]1CC2(CCC2)Oc2ncc(C(F)(F)C(C)(C)C)cc21 [compound 627] | – | – | – | 2.1 µM | – | – | 166 µL/min/mg | 829 µL/min/mg | IC50 (CYP2D6; 2D6 IC50, CYP2D6 inhibition): 26.1 µM; IC50 [3, 15]: 0.047 µM; IC50 [4, 16]: 0.007 µM
CCOCC(=O)N[C@@H](Cc1cc(F)cc(-c2nccs2)c1)[C@H](O)CN[C@H]1CC2(CCC2)Oc2ncc(CC(C)(C)C)cc21 [compound 862, N-((1S,2R)-3-(((4′S)-6′-(2,2-dimethylpropyl)-3′,4′-dihydrospiro[cyclobutane-1,2′-pyrano[2,3-b]pyridin]-4′-yl)amino)-1-(3-fluoro-5-(1,3-thiazol-2-yl)benzyl)-2-hydroxypropyl)-2-ethoxyacetamide] | 64 µL/min/mg | 43 µL/min/mg | – | 0.3 µM | – | – | – | – | IC50 (CYP2D6; [10]): 0.65 µM; IC50 [3, 11]: 0.009 µM; IC50 [4, 9]: 0.004 µM
COCC(=O)N[C@@H](Cc1cc(F)cc(F)c1)[C@H](O)CN[C@H]1CC2(CCC2)Oc2c1cc(CC(C)(C)C)nc2-c1ccc2c(c1)OCO2 [compound 629] | – | – | – | 1.2 µM | – | – | 209 µL/min/mg | 171 µL/min/mg | IC50 (CYP2D6; 2D6 IC50, CYP2D6 inhibition): ≥ 27 µM; IC50 [3, 15]: 0.121 µM; IC50 [4, 16]: 0.009 µM
COCC(=O)N[C@@H](Cc1cc(F)cc(F)c1)[C@H](O)CN[C@H]1CC2(CCC2)Oc2c1cc(CC(C)C)nc2Cl [compound 667] | – | – | – | 0.6 µM | – | – | 682 µL/min/mg | 399 µL/min/mg | IC50 (CYP2D6; 2D6 IC50, CYP2D6 inhibition): 6.3 µM; IC50 [3, 15]: 0.054 µM; IC50 [4, 16]: 0.005 µM
COCC(=O)N[C@@H](Cc1ccc2c(c1)OCO2)[C@H](O)CN[C@H]1CC2(CCC2)Oc2ncc(CC(F)(F)F)cc21 [compound 518] | 82 µL/min/mg | 26 µL/min/mg | 2.7 µM | 0.3 µM | 0.34 µM | 0.131 µM | – | – | –
CO[C@H](C)C(=O)N[C@@H](Cc1cc(F)cc(F)c1)[C@H](O)CN[C@H]1CC2(CCC2)Oc2c(-c3cncs3)cc(CC(C)C)cc21 [compound 491] | 285 µL/min/mg | 345 µL/min/mg | 6.2 µM | 0.2 µM | 0.036 µM | 0.004 µM | – | – | –
COCC(=O)N[C@@H](Cc1cc(F)cc(F)c1)[C@H](O)CN[C@H]1CC2(CCC2)Oc2c(-c3cncs3)cc(CC(C)(C)C)cc21 [compound 486] | 380 µL/min/mg | 408 µL/min/mg | – | 0.2 µM | – | – | – | – | IC50 (CYP2D6; [10]): 12.8 µM; IC50 [3, 17]: 0.033 µM; IC50 [4, 18]: 0.004 µM
CC(C)Cc1cnc2c(c1)[C@@H](NC[C@@H](O)[C@H](Cc1ccc3c(c1)OCO3)NC(=O)[C@@H]1CCCO1)CC1(CCC1)O2 [compound 548] | 184 µL/min/mg | 57 µL/min/mg | 3.7 µM | 0.3 µM | 0.623 µM | 0.074 µM | – | – | –
CO[C@H](C)C(=O)N[C@@H](Cc1cc(F)cc(F)c1)[C@H](O)CN[C@H]1CC2(CCC2)Oc2c1cc(CC(C)C)nc2Cl [compound 686] | – | – | – | 0.2 µM | – | – | 399 µL/min/mg | 921 µL/min/mg | IC50 (CYP2D6; [12]): 6.1 µM; IC50 [3, 13]: 0.052 µM; IC50 [4, 14]: 0.003 µM
